Values belong to the molecule of their own block, whether it stands above or below them.
Legend:
[1] = tested on: fetal hemoglobin; conditions: sickle cell anemia patients; cited from earlier work
[2] = Pharmacokinetic variability of serum butyrate (standard deviation of a parameter such as Cmax or AUC divided by its mean); type: in vivo
From the text: Pharmacokinetic variability is the measure of differences in the serum butyrate concentrations between different patients administered the same amount of butyrate esters of threitol. Pharmacokinetic variability is quantified by dividing the standard deviation for a given parameter, such as Cmax or AUC, by the mean value of that parameter, in a series of patients given dose the same dosage of butyrate ester of threitol.

[3] = Oral bioavailability and sustenance of plasma concentrations of butyric acid in rats after oral gavage; type: in vivo, rats (Sprague Dawley); conditions: rat; for AUC: butyric acid in plasma, oral gavage, mean ± SD
Protocol: We evaluated oral bioavailability and sustenance of plasma concentrations of butyric acid in rats receiving tetrabutyrate esters of threitol and tributyrin by oral gavage.
This assay was carried out according to the protocol described in Daniel et al., Clinca Chimica Acta., 181, pp. 255-64 (1989); Planchon et al., J. Pharm. Sci., 82, pp. 1046-48 (1993); Pouillart et al., J. Pharm Sci., 81, pp. 241-44 (1992). Each compound was tested in five to six rats (Sprague Dawley; Harlan Labs, Inc.) weighing approximately 300 grams each. In that table, data are expressed as mean ± standard deviation (range) and were compared using the unpaired Student's t-test.

[4] = leukemia patients; continuous infusions of sodium butyrate; cited from earlier work
[5] = in vitro; conditions: cell culture
[6] = tested on: Cultured Erythroleukemic Cells; conditions: in vitro; cited from earlier work
[7] = tested on: leukemia patients; conditions: by inducing cell differentiation; cited from earlier work
[8] = tested on: tumor and leukemia in mice; conditions: cited from earlier work

Structure (SMILES): NC(=O)NO [hydroxyurea]
fetal hemoglobin production [1]: stimulates fetal hemoglobin production
sickling crisis [1]: reduces sickling crisis

pharmacokinetic variability ([2]; in vivo): 35-40%
Structure (SMILES): CCCC(=O)OC[C@H](OC(=O)CCC)[C@@H](COC(=O)CCC)OC(=O)CCC [tetrabutyrate ester of mesothreitol]

AUC ([3]; 2.8 gm/kg): 900 ± 260 µM·h
Structure (SMILES): CCCC(=O)OC[C@@H](OC(=O)CCC)[C@@H](COC(=O)CCC)OC(=O)CCC [d-threitol tetrabutyrate ester]

Structure (SMILES): CCCC(=O)[O-].[Na+] [sodium butyrate]
plasma half-life of butyric acid [4]: 6 min

MCC [5]: > 3 mM
Structure (SMILES): CCCC(=O)O [butyric acid]
cell differentiation [6]: induces cell differentiation
effect in leukemia patients [7]: promising effects

Structure (SMILES): CCCC(=O)O [arginine butyrate]
anti-tumor and anti-leukemia effects [8]: anti-tumor and anti-leukemia effects

AUC ([3]; 2.4 gm/kg): 1200 ± 400 µM·h
Structure (SMILES): CCCC(=O)OC[C@H](OC(=O)CCC)[C@H](COC(=O)CCC)OC(=O)CCC [l-threitol tetrabutyrate ester]

pharmacokinetic variability ([2]; standard deviation / mean of a parameter such as Cmax or AUC): 70%
AUC ([3]; 3.0 gm/kg): 1590 ± 930 µM·h
oral bioavailability (to provide therapeutic plasma levels of butyric acid) ([3]; oral): orally bioavailable
variability of release of butyric acid in vivo ([3]; oral, tetrabutyrate esters of threitol vs tributyrin): more variable
Structure (SMILES): CCCC(=O)OCC(COC(=O)CCC)OC(=O)CCC [tributyrin]
